The values below come from PubChem BioAssay AID330 (DTP/NCI, 2004).

This test concerns P388 leukemia ip, CD2F1 mice, survival T/C. The experiment in a line: NCI In Vivo Anticancer Drug Screen. Data for tumor model P388 Leukemia (intraperitoneal) in CD2F1 (CDF1) mice. Conditions: endpoint: median survival time, higher = longer survival. In outline: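 Mice carrying the transplanted tumor received test compound or vehicle. Survival was recorded in each group, and the value is the treated-group measurement divided by that of the vehicle-treated control group.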

[1] abbreviates: dose: 50.0 mg/kg/injection, schedule: Q01DX009 (ip), vehicle: Klucel (hydroxypropylcellulose) (HPC).
The mark [2] stands for this setting: dose: 100.0 mg/kg/injection, schedule: Q01DX009 (ip), vehicle: Klucel (hydroxypropylcellulose) (HPC).
The mark [3] stands for this setting: dose: 200.0 mg/kg/injection, schedule: Q01DX009 (ip), vehicle: Klucel (hydroxypropylcellulose) (HPC).
The mark [4] stands for this setting: dose: 60.0 mg/kg/injection, schedule: Q01DX005 (ip), vehicle: saline with Tween-80.
Setting [5] is: dose: 100.0 mg/kg/injection, schedule: Q01DX009 (ip), vehicle: saline with Tween-80.
[6] abbreviates: dose: 200.0 mg/kg/injection, schedule: Q01DX009 (ip), vehicle: saline with Tween-80.
[7] abbreviates: dose: 400.0 mg/kg/injection, schedule: Q01DX009 (ip), vehicle: saline with Tween-80.

Several values for one entry are separate records, joined by “and”; a condition that tells them apart may be missing. Equal values may be shown once. Toxic doses and inconclusive results are not listed.

Regarding `CCCCC(=O)OCC(=O)[C@]1(O)Cc2c(O)c3c(c(O)c2[C@@H](OC2CC(NC(=O)C(F)(F)F)C(O)C(C)O2)C1)C(=O)c1c(OC)cccc1C3=O` (some centres not stated), the T/C was 98 % of control (dose: 0.5 mg/kg/injection, schedule: Q04DX003 (ip), vehicle: saline with Tween-80); 104 % of control (dose: 1.0 mg/kg/injection, schedule: Q04DX003 (ip), vehicle: saline with Tween-80); 124 % of control (dose: 1.4 mg/kg/injection, schedule: Q01DX009 (ip), vehicle: clinical formulation); 99 % of control and 101 % of control (dose: 2.0 mg/kg/injection, schedule: Q04DX003 (ip), vehicle: saline with Tween-80); 100 % of control and 101 % of control and 105 % of control (dose: 4.0 mg/kg/injection, schedule: Q04DX003 (ip), vehicle: saline with Tween-80); 162 % of control (dose: 6.48 mg/kg/injection, schedule: Q01DX009 (ip), vehicle: clinical formulation). The T/C by setting is: (dose: 8.0 mg/kg/injection, schedule: Q04DX003 (ip), vehicle: saline with Tween-80) 114 % of control and 121 % of control and 97 % of control; (dose: 9.38 mg/kg/injection, schedule: Q04DX003 (ip), vehicle: clinical formulation) 111 % of control; (dose: 10.8 mg/kg/injection, schedule: Q01DX009 (ip), vehicle: clinical formulation) 189 % of control and 193 % of control; (dose: 13.0 mg/kg/injection, schedule: Q04DX003 (ip), vehicle: clinical formulation) 124 % of control; (dose: 16.0 mg/kg/injection, schedule: Q04DX003 (ip), vehicle: saline with Tween-80) 121 % of control; (dose: 18.0 mg/kg/injection, schedule: Q01DX009 (ip), vehicle: clinical formulation) 224 % of control and 232 % of control. In addition, the T/C is, setting by setting: (dose: 18.75 mg/kg/injection, schedule: Q04DX003 (ip), vehicle: clinical formulation) 118 % of control; (dose: 30.0 mg/kg/injection, schedule: Q01DX004 (ip), vehicle: distilled water + Tween-80) 196 % of control and 333 % of control; (dose: 30.0 mg/kg/injection, schedule: Q01DX009 (ip), vehicle: clinical formulation) 303 % of control and 560 % of control; (dose: 32.4 mg/kg/injection, schedule: Q04DX003 (ip), vehicle: clinical formulation) 156 % of control; (dose: 36.0 mg/kg/injection, schedule: Q04DX003 (ip), vehicle: clinical formulation) 163 % of control; (dose: 37.5 mg/kg/injection, schedule: Q04DX003 (ip), vehicle: clinical formulation) 123 % of control. Moreover, the T/C is, setting by setting: (dose: 37.5 mg/kg/injection, schedule: Q04DX003 (ip), vehicle: saline with Tween-80) 156 % of control; (dose: 37.5 mg/kg/injection, schedule: Q04DX003 (iv), vehicle: saline with Tween-80) 120 % of control; (dose: 40.0 mg/kg/injection, schedule: Q01DX004 (ip), vehicle: distilled water + Tween-80) 171 % of control; (dose: 50.0 mg/kg/injection, schedule: Q01DX004 (ip), vehicle: distilled water + Tween-80) 91 % of control; (dose: 50.0 mg/kg/injection, schedule: Q01DX009 (ip), vehicle: clinical formulation) 110 % of control; (dose: 54.0 mg/kg/injection, schedule: Q04DX003 (ip), vehicle: clinical formulation) 193 % of control. Further, the T/C (dose: 60.0 mg/kg/injection, schedule: Q01DX004 (ip), vehicle: distilled water + Tween-80) is 89 % of control; the T/C (dose: 60.0 mg/kg/injection, schedule: Q04DX003 (ip), vehicle: clinical formulation) is 219 % of control; the T/C (dose: 64.0 mg/kg/injection, schedule: Q04DX003 (ip), vehicle: saline with Tween-80) is 153 % of control and 161 % of control; the T/C (dose: 75.0 mg/kg/injection, schedule: Q04DX003 (ip), vehicle: clinical formulation) is 189 % of control; the T/C (dose: 75.0 mg/kg/injection, schedule: Q04DX003 (ip), vehicle: saline with Tween-80) was 180 % of control; the T/C (dose: 75.0 mg/kg/injection, schedule: Q04DX003 (iv), vehicle: saline with Tween-80) was 106 % of control. The T/C was 219 % of control (dose: 90.0 mg/kg/injection, schedule: Q04DX003 (ip), vehicle: clinical formulation); 242 % of control (dose: 100.0 mg/kg/injection, schedule: Q04DX003 (ip), vehicle: clinical formulation); 168 % of control and 180 % of control and 201 % of control (dose: 128.0 mg/kg/injection, schedule: Q04DX003 (ip), vehicle: saline with Tween-80); 243 % of control and 270 % of control (dose: 150.0 mg/kg/injection, schedule: Q04DX003 (ip), vehicle: saline with Tween-80); 153 % of control (dose: 150.0 mg/kg/injection, schedule: Q04DX003 (iv), vehicle: saline with Tween-80); 173 % of control and 190 % of control and 257 % of control (dose: 256.0 mg/kg/injection, schedule: Q04DX003 (ip), vehicle: saline with Tween-80). For the same compound, the T/C was 87 % of control (dose: 300.0 mg/kg/injection, schedule: Q04DX003 (ip), vehicle: clinical formulation); 252 % of control (dose: 300.0 mg/kg/injection, schedule: Q04DX003 (ip), vehicle: saline with Tween-80); 222 % of control (dose: 300.0 mg/kg/injection, schedule: Q04DX003 (iv), vehicle: saline with Tween-80); 117 % of control (dose: 512.0 mg/kg/injection, schedule: Q04DX003 (ip), vehicle: saline with Tween-80); 169 % of control (dose: 600.0 mg/kg/injection, schedule: Q04DX003 (iv), vehicle: saline with Tween-80); 107 % of control (dose: 1024.0 mg/kg/injection, schedule: Q04DX003 (ip), vehicle: saline with Tween-80).
Regarding `COc1ccccc1NC(N)=S`, the T/C (dose: 25.0 mg/kg/injection, schedule: Q01DX009 (ip), vehicle: Klucel (hydroxypropylcellulose) (HPC)) is 96 % of control; the T/C under setting [1] is 98 % of control; the T/C under setting [2] is 96 % of control; the T/C under setting [3] was 97 % of control.
For `CCc1c(-c2ccccc2)nc(N)nc1-c1nc(N)nc(-c2ccccc2)c1CC`, the T/C by setting is: (dose: 60.0 mg/kg/injection, schedule: Q01DX005 (ip), vehicle: saline) 98 % of control; (dose: 120.0 mg/kg/injection, schedule: Q01DX005 (ip), vehicle: saline) 100 % of control.
For `COCCN1C(N)=C(C#N)C=C2CCCC(N=C(C#N)C#N)=C21`, the T/C was 101 % of control under setting [4]; 102 % of control (dose: 100.0 mg/kg/injection, schedule: Q01DX005 (ip), vehicle: saline with Tween-80); 102 % of control (dose: 200.0 mg/kg/injection, schedule: Q01DX005 (ip), vehicle: saline with Tween-80).
In the case of `O=C(CCl)NC(Cc1ccc(O)cc1)C(=O)O` (configuration not stated), the T/C runs as follows: (dose: 25.0 mg/kg/injection, schedule: Q01DX009 (ip), vehicle: saline with Tween-80) 104 % of control; (dose: 50.0 mg/kg/injection, schedule: Q01DX009 (ip), vehicle: saline with Tween-80) 99 % of control; under setting [5], 101 % of control and 105 % of control; under setting [6], 94 % of control; under setting [7], 114 % of control.
As to `CCO/C=C1/N=C(c2ccc(Cl)c([N+](=O)[O-])c2)OC1=O`, the T/C reads like this: under setting [4], 108 % of control; (dose: 120.0 mg/kg/injection, schedule: Q01DX005 (ip), vehicle: saline with Tween-80) 106 % of control; (dose: 240.0 mg/kg/injection, schedule: Q01DX005 (ip), vehicle: saline with Tween-80) 107 % of control.
As for `COc1ccc(C=Nc2ccccc2)cc1`, the T/C was 100 % of control under setting [5], 118 % of control under setting [6] and 118 % of control under setting [7].
In the case of `COC(=O)C1(Br)CCC1(Br)C(=O)OC` (configuration not stated), the T/C under setting [1] is 100 % of control; the T/C under setting [2] was 109 % of control; the T/C under setting [3] is 103 % of control; the T/C (dose: 400.0 mg/kg/injection, schedule: Q01DX009 (ip), vehicle: Klucel (hydroxypropylcellulose) (HPC)) was 94 % of control.
Regarding `[NH-][n+]1c2c(nc3ccccc31)-c1cccc3cccc-2c13`, the T/C was 103 % of control (dose: 50.0 mg/kg/injection, schedule: Q01DX005 (ip), vehicle: Klucel (hydroxypropylcellulose) (HPC)); 97 % of control (dose: 100.0 mg/kg/injection, schedule: Q01DX001 (ip), vehicle: Klucel (hydroxypropylcellulose) (HPC)); 112 % of control (dose: 100.0 mg/kg/injection, schedule: Q01DX005 (ip), vehicle: Klucel (hydroxypropylcellulose) (HPC)); 100 % of control (dose: 200.0 mg/kg/injection, schedule: Q01DX001 (ip), vehicle: Klucel (hydroxypropylcellulose) (HPC)); 105 % of control (dose: 200.0 mg/kg/injection, schedule: Q01DX005 (ip), vehicle: Klucel (hydroxypropylcellulose) (HPC)); 102 % of control (dose: 400.0 mg/kg/injection, schedule: Q01DX001 (ip), vehicle: Klucel (hydroxypropylcellulose) (HPC)).
